pIC50: −log10 of the molar value. Counter-ions that a name gives are not always drawn.
These compounds were tested against T1, human recombinant HPK1 (Homo sapiens, UniProt Q92918) (assay: Inhibitory activity against human recombinant HPK1 (TR-FRET)). Settings: ULight-p70S6K peptide, ATP at Km, room temperature, 1 hour, 0.32 to 1000 nM compound.
T1 construct: purchased BPS Bioscience
Assay type: biochemical
How it was run: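 IC50 classes A–D use 10, 50 and 100 nM cut-offs, derived from TR-FRET signal inhibition relative to DMSO controls. Human recombinant HPK1 phosphorylated ULight-p70S6K peptide at Km ATP for 1 h, room temperature, pH 7.4; test range 0.32–1000 nM final, detection with Eu-labelled antibody after EDTA quench.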

T1 sequence (Q92918 whole entry): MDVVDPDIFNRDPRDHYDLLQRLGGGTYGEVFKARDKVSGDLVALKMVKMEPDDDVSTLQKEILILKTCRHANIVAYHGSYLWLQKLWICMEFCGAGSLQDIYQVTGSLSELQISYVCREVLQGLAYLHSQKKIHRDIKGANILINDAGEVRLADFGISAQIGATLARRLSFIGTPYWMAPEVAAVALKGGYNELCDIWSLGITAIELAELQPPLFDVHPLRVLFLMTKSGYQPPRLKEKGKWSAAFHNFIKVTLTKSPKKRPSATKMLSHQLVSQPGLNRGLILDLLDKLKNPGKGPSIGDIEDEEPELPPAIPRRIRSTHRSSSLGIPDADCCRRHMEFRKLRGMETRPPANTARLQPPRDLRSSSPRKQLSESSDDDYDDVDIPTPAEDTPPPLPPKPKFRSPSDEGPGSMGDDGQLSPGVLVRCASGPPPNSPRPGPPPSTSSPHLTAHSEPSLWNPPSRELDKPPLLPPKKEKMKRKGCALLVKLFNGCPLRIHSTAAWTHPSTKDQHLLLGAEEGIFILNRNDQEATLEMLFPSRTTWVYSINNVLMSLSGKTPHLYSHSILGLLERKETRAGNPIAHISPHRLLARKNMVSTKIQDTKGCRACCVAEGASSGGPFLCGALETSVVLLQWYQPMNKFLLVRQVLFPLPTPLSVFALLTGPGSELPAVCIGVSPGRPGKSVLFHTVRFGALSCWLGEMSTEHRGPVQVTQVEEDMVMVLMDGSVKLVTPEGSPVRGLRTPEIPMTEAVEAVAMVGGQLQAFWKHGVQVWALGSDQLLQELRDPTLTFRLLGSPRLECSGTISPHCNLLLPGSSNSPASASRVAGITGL

Compound | pIC50
COc1cc(F)cc(F)c1-c1nccc(Nc2cc(N3CCC[C@](C)(N)C3)c(-c3cnn(C(F)F)c3)cn2)n1 [Example 212, (S)-N-(4-(3-amino-3-methylpiperidin-1-yl)-5-(1-(difluoromethyl)-1H-pyrazol-4-yl)pyridin-2-yl)-2-(2,4-difluoro-6-methoxyphenyl)pyrimidin-4-amine hydrochloride] | ≥ 8.00
COc1cccc(F)c1-c1nccc(Nc2cc(N3CCC[C@H](O)C3)c(C#Cc3cnn(C(F)(F)F)c3)cn2)n1 [Example 8, (S)-1-(2-((2-(2-fluoro-6-methoxyphenyl)pyrimidin-4-yl)amino)-5-((1-(trifluoromethyl)-1H-pyrazol-4-yl)ethynyl)pyridin-4-yl)piperidin-3-ol] | 7.30 to 8.00
COc1cccc(F)c1-c1nc(Nc2cc(N3CCC[C@H](O)C3)c(C(N)=O)cn2)ccc1[N+](=O)[O-] [Example 191, 6-((6-(2-fluoro-6-methoxyphenyl)-5-nitropyridin-2-yl)amino)-4-((S)-3-hydroxypiperidin-1-yl)nicotinamide] | ≥ 8.00
COc1cccc(F)c1-c1nc(Nc2cc(N3CCC[C@H](O)C3)c(C(=O)N[C@@H]3CC[C@@H](O)C3)cn2)ccc1[N+](=O)[O-] [Example 194, 6-((6-(2-fluoro-6-methoxyphenyl)-5-nitropyridin-2-yl)amino)-N-((1R,3R)-3-hydroxycyclopentyl)-4-((S)-3-hydroxypiperidin-1-yl)nicotinamide] | ≥ 8.00
COc1cccc(F)c1-c1nc(Nc2cc(N3CCC[C@H](O)C3)c(C(=O)N[C@@H]3CC[C@H](N)C3)cn2)ccc1[N+](=O)[O-] [Example 200, N-((1R,3S)-3-aminocyclopentyl)-6-((6-(2-fluoro-6-methoxyphenyl)-5-nitropyridin-2-yl)amino)-4-((S)-3-hydroxypiperidin-1-yl)nicotinamide] | ≥ 8.00
COc1cccc(F)c1-c1nccc(Nc2cc(N3CCC[C@H](O)C3)c(-c3ccc(C4CCOCC4)nc3)cn2)n1 [Example 31, (S)-1-(6-((2-(2-fluoro-6-methoxyphenyl)pyrimidin-4-yl)amino)-6′-(tetrahydro-2H-pyran-4-yl)-[3,3′-bipyridin]-4-yl)piperidin-3-ol] | ≥ 8.00
COc1cccc(F)c1-c1nccc(Nc2cc(N3C[C@@H](N)C[C@H](F)C3)c(-c3cnn(C(F)F)c3)cn2)n1 [Example 304, N-(4-((3S,5S)-3-amino-5-fluoropiperidin-1-yl)-5-(1-(difluoromethyl)-1H-pyrazol-4-yl)pyridin-2-yl)-2-(2-fluoro-6-methoxyphenyl)pyrimidin-4-amine hydrochloride] | ≥ 8.00
O=C(c1cnc(Nc2ccnc(-c3cccc(O)c3)n2)cc1N1CCC[C@H](O)C1)C1CC1 [Example 4, (S)-cyclopropyl(6-((2-(3-hydroxyphenyl)pyrimidin-4-yl)amino)-4-(3-hydroxypiperidin-1-yl)pyridin-3-yl)methanone] | 7.00 to 7.30
COc1cc(F)cc(F)c1-c1nccc(Nc2cc(N3CCC[C@H](O)C3)c(C#Cc3cnn(CC(F)(F)F)c3)cn2)n1 [Example 220, (S)-1-(2-((2-(2,4-difluoro-6-methoxyphenyl)pyrimidin-4-yl)amino)-5-((1-(2,2,2-trifluoroethyl)-1H-pyrazol-4-yl)ethynyl)pyridin-4-yl)piperidin-3-ol] | ≥ 8.00
COc1cccc(F)c1-c1nccc(Nc2cc(N3CCC[C@H](O)C3)c(-c3ccc(N4CCN(C)CC4)cc3)cn2)n1 [Example 19, (S)-1-(2-((2-(2-fluoro-6-methoxyphenyl)pyrimidin-4-yl)amino)-5-(4-(4-methylpiperazin-1-yl)phenyl)pyridin-4-yl)piperidin-3-ol] | ≥ 8.00
COc1cccc(F)c1-c1nccc(Nc2cc(N3CCC[C@H](O)C3)c(-c3ccc4nncn4c3)cn2)n1 [Example 62, (S)-1-(5-([1,2,4]triazolo[4,3-a]pyridin-6-yl)-2-((2-(2-fluoro-6-methoxyphenyl)pyrimidin-4-yl)amino)pyridin-4-yl)piperidin-3-ol] | 7.00 to 7.30
COc1cccc(F)c1-c1nc(Nc2cc(N3CCC[C@H](O)C3)c(-c3cnn(C4CCOCC4)c3)cn2)ccc1C#N [Example 59, 2-(2-fluoro-6-methoxyphenyl)-6-((4-((S)-3-hydroxypiperidin-1-yl)-5-(1-(tetrahydro-2H-pyran-4-yl)-1H-pyrazol-4-yl)pyridin-2-yl)amino)nicotinonitrile] | ≥ 8.00
COc1cccc(F)c1-c1nccc(Nc2cc(N3CCC[C@H](N)C3)c(-c3ccc4c(c3)COC(=O)N4)cn2)n1 [Example 258, (S)-6-(4-(3-aminopiperidin-1-yl)-6-((2-(2-fluoro-6-methoxyphenyl)pyrimidin-4-yl)amino)pyridin-3-yl)-1,4-dihydro-2H-benzo[d][1,3]oxazin-2-one hydrochloride] | ≥ 8.00

Next, values leading:

pIC50 | Compound
≥ 8.00 | COc1cc(C(=O)N(C)C)cc(F)c1-c1nccc(Nc2cc(N3CCC[C@H](N)C3)c(-c3cnn(C(F)F)c3)cn2)n1 [Example 187, (S)-4-(4-((4-(3-aminopiperidin-1-yl)-5-(1-(difluoromethyl)-1H-pyrazol-4-yl)pyridin-2-yl)amino)pyrimidin-2-yl)-3-fluoro-5-methoxy-N,N-dimethylbenzamide hydrochloride]
≥ 8.00 | COc1cc(CN(C)C)cc(F)c1-c1nccc(Nc2cc(N3CCC[C@H](N)C3)c(C#CC3CCOCC3)cn2)n1 [Example 106, (S)-N-(4-(3-aminopiperidin-1-yl)-5-((tetrahydro-2H-pyran-4-yl)ethynyl)pyridin-2-yl)-2-(4-((dimethylamino)methyl)-2-fluoro-6-methoxyphenyl)pyrimidin-4-amine hydrochloride]
7.30 to 8.00 | Nc1cncc(-c2nccc(Nc3cc(N4CCC[C@H](O)C4)c(C(=O)C4CC4)cn3)n2)c1 [Example 2, (S)-(6-((2-(5-aminopyridin-3-yl)pyrimidin-4-yl)amino)-4-(3-hydroxypiperidin-1-yl)pyridin-3-yl)(cyclopropyl)methanone]
≥ 8.00 | COc1cccc(F)c1-c1nc(Nc2cc(N3CCC[C@H](O)C3)c(-c3cnn(CC(F)(F)F)c3)cn2)ccc1C#N [Example 316, 2-(2-fluoro-6-methoxyphenyl)-6-((4-((S)-3-hydroxypiperidin-1-yl)-5-(1-(2,2,2-trifluoroethyl)-1H-pyrazol-4-yl)pyridin-2-yl)amino)nicotinonitrile]
≥ 8.00 | COc1cccc(F)c1-c1nc(Nc2cc(N3CCC[C@H](N)C3)c(-c3cnn(C(F)F)c3)cn2)ccc1S(C)(=O)=O [Example 315, 4-((S)-3-aminopiperidin-1-yl)-5-(1-(difluoromethyl)-1H-pyrazol-4-yl)-N-(6-(2-fluoro-6-methoxyphenyl)-5-(methylsulfonyl)pyridin-2-yl)pyridin-2-amine hydrochloride]
≥ 8.00 | COc1cccc(F)c1-c1nccc(Nc2cc(N3CCC[C@H](N)C3)c(-c3ccc(N4CCOCC4)nc3)cn2)n1 [Example 121, (S)-4-(3-aminopiperidin-1-yl)-N-(2-(2-fluoro-6-methoxyphenyl)pyrimidin-4-yl)-6′-morpholino-[3,3′-bipyridin]-6-amine hydrochloride]
≥ 8.00 | COc1cccc(F)c1-c1nccc(Nc2cc(N3CCC[C@H](N)C3)c(-c3cnn([C@@H]4CCOC4)c3)cn2)n1 [Example 299, N-(4-((S)-3-aminopiperidin-1-yl)-5-(1-((R)-tetrahydrofuran-3-yl)-1H-pyrazol-4-yl)pyridin-2-yl)-2-(2-fluoro-6-methoxyphenyl)pyrimidin-4-amine hydrochloride]
≥ 8.00 | COc1cccc(F)c1-c1nccc(Nc2cc(N3CCC[C@H](O)C3)c(-c3cnn(CC4CC4)c3)cn2)n1 [Example 17, (S)-1-(5-(1-(cyclopropylmethyl)-1H-pyrazol-4-yl)-2-((2-(2-fluoro-6-methoxyphenyl)pyrimidin-4-yl)amino)pyridin-4-yl)piperidin-3-ol]
≥ 8.00 | COc1cccc(F)c1-c1nccc(Nc2cc(N3CCC[C@H](N)C3)c(-c3cnn(CC4CC(F)(F)C4)c3)cn2)n1 [Example 245, (S)-N-(4-(3-aminopiperidin-1-yl)-5-(1-((3,3-difluorocyclobutyl)methyl)-1H-pyrazol-4-yl)pyridin-2-yl)-2-(2-fluoro-6-methoxyphenyl)pyrimidin-4-amine hydrochloride]
≥ 8.00 | COc1cccc(F)c1-c1nccc(Nc2cc(N3CCC[C@H](CF)C3)c(-c3cnn(C(F)F)c3)cn2)n1 [Example 272, (S)-N-(5-(1-(difluoromethyl)-1H-pyrazol-4-yl)-4-(3-(fluoromethyl)piperidin-1-yl)pyridin-2-yl)-2-(2-fluoro-6-methoxyphenyl)pyrimidin-4-amine]
≥ 8.00 | COc1cccc(F)c1-c1nccc(Nc2cc(N3CCC(C(F)(F)F)CC3)c(-c3cnn(C4CCOCC4)c3)cn2)n1 [Example 87, 2-(2-fluoro-6-methoxyphenyl)-N-(5-(1-(tetrahydro-2H-pyran-4-yl)-1H-pyrazol-4-yl)-4-(4-(trifluoromethyl)piperidin-1-yl)pyridin-2-yl)pyrimidin-4-amine]
≥ 8.00 | COc1cc(CN(C)C)cc(F)c1-c1nccc(Nc2cc(N3CCC[C@H](N)C3)c(-c3cnn(CC(F)(F)F)c3)cn2)n1 [Example 105, (S)-N-(4-(3-aminopiperidin-1-yl)-5-(1-(2,2,2-trifluoroethyl)-1H-pyrazol-4-yl)pyridin-2-yl)-2-(4-((dimethylamino)methyl)-2-fluoro-6-methoxyphenyl)pyrimidin-4-amine hydrochloride]
≥ 8.00 | COc1cccc(F)c1-c1nccc(Nc2cc(N3CCC[C@H](N)C3)c(-c3cnn(C4CCN(C)CC4)c3)cn2)n1 [Example 74, (S)-N-(4-(3-aminopiperidin-1-yl)-5-(1-(1-methylpiperidin-4-yl)-1H-pyrazol-4-yl)pyridin-2-yl)-2-(2-fluoro-6-methoxyphenyl)pyrimidin-4-amine hydrochloride]
